IC50 data for 30 compounds are collected here from US7973061B2, “Anaplastic lymphoma kinase modulators and methods of use” (Exelixis, Inc., priority 2004, dated 2011).

T1 sequence (Q9UM73 1098-1410): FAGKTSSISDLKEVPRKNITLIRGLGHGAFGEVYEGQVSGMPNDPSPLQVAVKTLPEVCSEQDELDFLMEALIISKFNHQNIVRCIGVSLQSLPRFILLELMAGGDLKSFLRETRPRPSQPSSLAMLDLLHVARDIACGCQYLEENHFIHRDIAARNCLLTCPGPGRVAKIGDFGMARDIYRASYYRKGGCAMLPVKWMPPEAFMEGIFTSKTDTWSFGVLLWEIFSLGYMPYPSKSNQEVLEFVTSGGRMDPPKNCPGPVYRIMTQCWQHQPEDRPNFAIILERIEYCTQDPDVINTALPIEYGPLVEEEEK

This test has as its target T1, ALK (baculovirus expressed human ALK kinase domain F1098-K1410) (Homo sapiens, UniProt Q9UM73).
T1 construct: human ALK kinase domain F1098-K1410; made in house
The test is described as follows: biochemical. Conditions: 1 μM ATP, 4 μM poly-AEKY, 12 nM ALK, 2 hours at ambient temperature; read-out: ALK IC50. In outline:
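Baculovirus-expressed human ALK kinase domain (F1098-K1410) was run in a luciferase-coupled chemiluminescent format, with ATP near its KM. After 2 h at ambient temperature, remaining ATP was read by luciferase-luciferin luminescence. IC50 came from 10-point dose-response curves fitted to a four-parameter equation with Hill slope.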
Broadly, the IC50 is the concentration that inhibits the measured activity by half. With `Cc1ccc(CCNC(=O)c2coc(CNC(=O)COc3ccc(OC(F)(F)F)cc3)n2)cc1` [Entry 225, N-[2-(4-methylphenyl)ethyl]-2-({[({4-[(trifluoromethyl)oxy]phenyl}oxy)acetyl]amino}methyl)-1,3-oxazole-4-carboxamide], the IC50 lay in the range of 500 to 2000 nM.
As to `O=C(COc1ccc(Cl)cc1)NCc1nc(C(=O)NCCc2ccccc2F)cs1` [Entry 215, 2-[({[(4-chlorophenyl)oxy]acetyl}amino)methyl]-N-[2-(2-fluorophenyl)ethyl]-1,3-thiazole-4-carboxamide], the IC50 fell in the range of 50 to 500 nM.
For `CC(C)CCCC(C)NC(=O)c1csc(CNC(=O)COc2ccc(OC(F)(F)F)cc2)n1` (stereo not drawn) [Entry 212, N-(1,5-dimethylhexyl)-2-({[({4-[(trifluoromethyl)oxy]phenyl}oxy)acetyl]amino}methyl)-1,3-thiazole-4-carboxamide] the value was 50 to 500 nM; for `O=C(COc1ccc(OC(F)(F)F)cc1)NCc1nc(C(=O)N[C@@H]2C[C@H]3CC[C@@H]2C3)cs1` [Entry 105, N-[(1R,2R,4S)-bicyclo[2.2.1]hept-2-yl]-2-({[({4-[(trifluoromethyl)oxy]phenyl}oxy)acetyl]amino}methyl)-1,3-thiazole-4-carboxamide], 50 to 500 nM; for `CC(NC(=O)c1csc(CNC(=O)COc2ccc(OC(F)(F)F)cc2)n1)c1cccc2ccccc12` (stereo not drawn) [Entry 85, N-(1-naphthalen-1-ylethyl)-2-({[({4-[(trifluoromethyl)oxy]phenyl}oxy)acetyl]amino}methyl)-1,3-thiazole-4-carboxamide], 50 to 500 nM.
Under `COc1cccc(CNC(=O)c2csc(CNC(=O)Nc3ccc(C(C)C)cc3)n2)c1OC` [Entry 78, N-{[2,3-bis(methyloxy)phenyl]methyl}-2-{[({[4-(1-methylethyl)phenyl]amino}carbonyl)amino]methyl}-1,3-thiazole-4-carboxamide] stands 50 to 500 nM.
For `O=C(C/C=C/c1ccccc1)NCc1nc(C(=O)NCCc2cccc(Cl)c2)cs1` [Entry 208, N-[2-(3-chlorophenyl)ethyl]-2-({[(3E)-4-phenylbut-3-enoyl]amino}methyl)-1,3-thiazole-4-carboxamide] the value was 50 to 500 nM.
On to `O=C(COc1ccc(OC(F)(F)F)cc1)NCc1nc(C(=O)NCc2ccccc2OC(F)F)cs1` [Entry 34, N-({2-[(difluoromethyl)oxy]phenyl}methyl)-2-({[({4-[(trifluoromethyl)oxy]phenyl}oxy)acetyl]amino}methyl)-1,3-thiazole-4-carboxamide], for which the IC50 lay in the range of 50 to 500 nM.
For `O=C(NCc1nc(C(=O)NCCc2cccc(Cl)c2)cs1)N[C@@H]1C[C@H]1c1ccccc1` [Entry 217, N-[2-(3-chlorophenyl)ethyl]-2-{[({[(1R,2S)-2-phenylcyclopropyl]amino}carbonyl)amino]methyl}-1,3-thiazole-4-carboxamide] the value was 50 to 500 nM; for `O=C(COc1ccc(OC(F)(F)F)cc1)NCc1nc(C(=O)NCc2ccc(F)cc2)cs1` [Entry 206, N-[(4-fluorophenyl)methyl]-2-({[({4-[(trifluoromethyl)oxy]phenyl}oxy)acetyl]amino}methyl)-1,3-thiazole-4-carboxamide], 50 to 500 nM; for `COc1cccc(CNC(=O)c2csc(CNC(=O)c3cccnc3Oc3ccc(Cl)cc3)n2)c1OC` [Entry 144, N-({4-[({[2,3-bis(methyloxy)phenyl]methyl}amino)carbonyl]-1,3-thiazol-2-yl}methyl)-2-[(4-chlorophenyl)oxy]pyridine-3-carboxamide], 50 to 500 nM.
For `O=C(COc1ccc(OC(F)(F)F)cc1)NCc1nc(C(=O)NCc2ccc(Cl)c(C(F)(F)F)c2)cs1` [Entry 73, N-{[4-chloro-3-(trifluoromethyl)phenyl]methyl}-2-({[({4-[(trifluoromethyl)oxy]phenyl}oxy)acetyl]amino}methyl)-1,3-thiazole-4-carboxamide] the value was 50 to 500 nM; for `COc1cc(CNC(=O)c2csc(CNC(=O)COc3ccc(OC(F)(F)F)cc3)n2)cc(OC)c1` [Entry 121, N-{[3,5-bis(methyloxy)phenyl]methyl}-2-({[({4-[(trifluoromethyl)oxy]phenyl}oxy)acetyl]amino}methyl)-1,3-thiazole-4-carboxamide], 50 to 500 nM.
Under `CC(C)C[C@@H](NC(=O)c1csc(CNC(=O)COc2ccc(OC(F)(F)F)cc2)n1)C(N)=O` [Entry 202, N~2~-{[2-({[({4-[(trifluoromethyl)oxy]phenyl}oxy)acetyl]amino}methyl)-1,3-thiazol-4-yl]carbonyl}-D-leucinamide] stands 50 to 500 nM; under `Cc1ccc(CCNC(=O)c2csc(CNC(=O)COc3ccc(OC(F)(F)F)cc3)n2)cc1` [Entry 36, N-[2-(4-methylphenyl)ethyl]-2-({[({4-[(trifluoromethyl)oxy]phenyl}oxy)acetyl]amino}methyl)-1,3-thiazole-4-carboxamide], 50 to 500 nM; under `Cc1ccc(CCNC(=O)c2csc(CNC(=O)COc3ccc(OC(F)(F)F)cc3)n2)cc1C` [Entry 56, N-[2-(3,4-dimethylphenyl)ethyl]-2-({[({4-[(trifluoromethyl)oxy]phenyl}oxy)acetyl]amino}methyl)-1,3-thiazole-4-carboxamide], 50 to 500 nM.
With `O=C(COc1ccc(OC(F)(F)F)cc1)NCc1nc(C(=O)NCCN2CCCC2)cs1` [Entry 274, N-(2-pyrrolidin-1-ylethyl)-2-({[({4-[(trifluoromethyl)oxy]phenyl}oxy)acetyl]amino}methyl)-1,3-thiazole-4-carboxamide], the IC50 lay in the range of 500 to 2000 nM.
Under `CCN(CC)C(=O)C1CCCN(C(=O)c2csc(CNC(=O)COc3ccc(OC(F)(F)F)cc3)n2)C1` (stereo not drawn) [Entry 270, N,N-diethyl-1-{[2-({[({4-[(trifluoromethyl)oxy]phenyl}oxy)acetyl]amino}methyl)-1,3-thiazol-4-yl]carbonyl}piperidine-3-carboxamide] stands 500 to 2000 nM; under `Cc1onc(-c2ccccc2)c1CNC(=O)c1csc(CNC(=O)COc2ccc(OC(F)(F)F)cc2)n1` [Entry 135, N-[(5-methyl-3-phenylisoxazol-4-yl)methyl]-2-({[({4-[(trifluoromethyl)oxy]phenyl}oxy)acetyl]amino}methyl)-1,3-thiazole-4-carboxamide], 50 to 500 nM; under `CN1CCCC1CCNC(=O)c1csc(CNC(=O)COc2ccc(OC(F)(F)F)cc2)n1` (stereo not drawn) [Entry 247, N-[2-(1-methylpyrrolidin-2-yl)ethyl]-2-({[({4-[(trifluoromethyl)oxy]phenyl}oxy)acetyl]amino}methyl)-1,3-thiazole-4-carboxamide], 500 to 2000 nM.
Under `O=C(COc1ccc(OC(F)(F)F)cc1)NCc1nc(C(=O)NCC2c3ccccc3CCc3ccccc32)co1` [Entry 38, N-(10,11-dihydro-5H-dibenzo[a,d]cyclohepten-5-ylmethyl)-2-({[({4-[(trifluoromethyl)oxy]phenyl}oxy)acetyl]amino}methyl)-1,3-oxazole-4-carboxamide] stands 50 to 500 nM; under `Cc1ccc([C@H](C)NC(=O)c2csc(CNC(=O)COc3ccc(OC(F)(F)F)cc3)n2)cc1` [Entry 162, N-[(1S)-1-(4-methylphenyl)ethyl]-2-({[({4-[(trifluoromethyl)oxy]phenyl}oxy)acetyl]amino}methyl)-1,3-thiazole-4-carboxamide], 50 to 500 nM; under `NCc1nc(C(=O)NCCc2ccccc2F)cs1` [Entry 305, 2-(aminomethyl)-N-[2-(2-fluorophenyl)ethyl]-1,3-thiazole-4-carboxamide], above 2000 nM.
On to `CC(C)(C)OC(=O)NCCCCCNC(=O)c1csc(CNC(=O)COc2ccc(OC(F)(F)F)cc2)n1` [Entry 123, 1,1-dimethylethyl [5-({[2-({[({4-[(trifluoromethyl)oxy]phenyl}oxy)acetyl]amino}methyl)-1,3-thiazol-4-yl]carbonyl}amino)pentyl]carbamate], for which the 50% inhibitory concentration (IC50) lay in the range of 50 to 500 nM.
Under `NC(=O)C1CCN(C(=O)c2csc(CNC(=O)COc3ccc(OC(F)(F)F)cc3)n2)CC1` [Entry 272, 1-{[2-({[({4-[(trifluoromethyl)oxy]phenyl}oxy)acetyl]amino}methyl)-1,3-thiazol-4-yl]carbonyl}piperidine-4-carboxamide] stands 500 to 2000 nM.
With `O=C(COc1ccc(OC(F)(F)F)cc1)NCc1nc(C(=O)O)cs1` [Entry 302, 2-({[({4-[(trifluoromethyl)oxy]phenyl}oxy)acetyl]amino}methyl)-1,3-thiazole-4-carboxylic acid], the IC50 is above 2000 nM.
For `O=C(COc1ccc(OC(F)(F)F)cc1)NCc1nc(C(=O)NCc2ccc(Cl)cc2)cs1` [Entry 227, N-[(4-chlorophenyl)methyl]-2-({[({4-[(trifluoromethyl)oxy]phenyl}oxy)acetyl]amino}methyl)-1,3-thiazole-4-carboxamide] the value was 500 to 2000 nM; for `O=C(COc1ccc(OC(F)(F)F)cc1)NCc1nc(C(=O)NC2CCCc3ccccc32)cs1` (stereo not drawn) [Entry 199, N-(1,2,3,4-tetrahydronaphthalen-1-yl)-2-({[({4-[(trifluoromethyl)oxy]phenyl}oxy)acetyl]amino}methyl)-1,3-thiazole-4-carboxamide], 50 to 500 nM.
For `CO[C@@H]1[C@@H](C)/C=C(\C)[C@H](OC(N)=O)[C@@H](OC)/C=C\C=C(/C)C(=O)NC2=CC(=O)C=C(C2=O)[C@H](OC)[C@@H](C)C[C@H]1OC` [Entry 301, (4E,6Z,8S,9S,10E,12S,13R,14R,16S,17R)-4,10,12,16-tetramethyl-8,13,14,17-tetrakis(methyloxy)-3,20,22-trioxo-2-azabicyclo[16.3.1]docosa-1(21),4,6,10,18-pentaen-9-yl carbamate, reference compound] the value was above 2000 nM; for `CC1CC(C)CN(C(=O)c2csc(CNC(=O)COc3ccc(OC(F)(F)F)cc3)n2)C1` (stereo not drawn) [Entry 282, N-({4-[(3,5-dimethylpiperidin-1-yl)carbonyl]-1,3-thiazol-2-yl}methyl)-2-({4-[(trifluoromethyl)oxy]phenyl}oxy)acetamide], 500 to 2000 nM.
